Read-outs that look alike come from different tables or passages of the source.
Tests used:
PDE3 = assay: Inhibition of cyclic nucleotide PDE activity (Assay I), PDE3; format: biochemical, guinea pig; conditions: mean ± S.E.M. (n); read-out: IC50 on phosphodiesterase isozyme 3
Procedure: (§1) Under a protocol approved by the Animal Care and Use Committee of Taipei Medical University, five male guinea pigs (Hartley), weighing 500-600 g, were sacrificed. The lungs (15 g) or hearts (4 g) taken therefrom were chopped into small pieces and homogenized with a glass/teflon homogenizer (Glas-Col, Terre Haute, Ind., USA) in 10 volumes of cold medium (pH 6.5) containing 20 mM Bis-Tris, 2 mM benzamidine, 2 mM EDTA, 50 mM sodium chloride, 0.1 mM phenylmethanesulfonyl fluoride (PMSF), and 1 mM dithiothreitol. At 4° C., the homogenate was centrifuged at 170 g for 15 min, and the supernatant thereof was then re-centrifuged at 40,000 g for 30 min. […] The column was washed with two bed volumes of homogenate buffer to remove unbound material, where the resin beads therein will bind with proteins, such as PDE proteins. Proteins bound to the Q-sepharose beads were eluted with various concentrations (0.23, 0.34, 0.44, 0.69, and 1.00 M) of NaCl dissolved in homogenate buffer (for each concentration, 40-50 mL elution buffer were applied) at a flow rate of 30 ml/h. Fractions (3 ml each) were collected, and ethylene glycol (EG) was added thereto until a final concentration of 30% (v/v). And then the samples were frozen at −70° C.
(§2) The activities of PDE1-5 in the homogenate were measured with a two-step procedure according to the method of Thompson and Appleman, using cAMP with [^3H]-cAMP or cGMP with [^3 H]-cGMP as substrates. The PDE enzyme prepared (25 μl) with 10 μl inhibitor or the solvents therefor was incubated for 30 min at 37° C. in a total assay buffer, where the final volume of the assay is amounted to 100 μl. In accordance with the features of the PDE isozymes, the assay buffer contains 50 mM Tris/HCl (pH 7.4), 3 mM MgCl2, 1 mM dithiothreitol, and 0.05% BSA, and optionally contains 1 uM cAMP with 0.2 μCi [^3H]-cAMP as a substrate alone or in the presence of 0.1 unit calmodulin with 10 μM CaCl2, or 5 μM cGMP, and 1 μM cGMP with 0.2 μCi [^3H]-cGMP as another substrate alone or in the presence of 0.1 unit calmodulin with 10 μM CaCl2.
(§3) The PDE enzyme and the inhibitors (or their solvent) therefor were mixed and incubated on ice for 30 min previously, and then mixed with the assay buffer. The assay was initiated by transferring the mixture to a water bath at 37° C. Following the other 30 min incubation, the reaction was stopped by transferring the reaction vessel to a bath of boiling water for 3 min. After cooling on ice, 20 μl of the 1 mg/ml of Crotalus atrox venom was added to the reaction mixture, and the mixture was incubated at 37° C. for 10 min. The uncatalyzed substrates, such as cAMP, [^3H]-cAMP, cGMP, or [^3H]-cGMP were removed by the addition of 500 μl of a 1-in-1 Tris-HCl (40 mM) buffer suspension of Dowex resin (1×8-200) with incubation on ice for 30 min, since the bindings of the cyclic nucleotides and the resin. Each tube was then centrifuged for 2 min at 6000 rpm, and 100 μl of the supernatant was removed and counted by a β-counter for calculating the enzyme (PDEs) activity.
(§4) The IC50 values of flavonoids and various reference drugs were calculated using non-linear regression analysis by the software SigmaPlot 7.0 (Sigma Chemical, St. Louis Mo., USA). All values are shown as the mean±S.E.M. Differences among values, which are equal or greater to three groups, were statistically calculated by one-way analysis of variance (ANOVA), and then determined by the least significant difference (LSD). The difference between two values, however, was determined by use of Student's unpaired t-test. Differences were considered statistically significant if the P-value was less than 0.05.

PDE2 = target: T1, PDE2 (Cavia porcellus, UniProt A0A286XUV5); assay: Inhibition of cyclic nucleotide PDE activity (Assay I), PDE2; format: biochemical, guinea pig
T1 sequence (A0A286XUV5 22-936): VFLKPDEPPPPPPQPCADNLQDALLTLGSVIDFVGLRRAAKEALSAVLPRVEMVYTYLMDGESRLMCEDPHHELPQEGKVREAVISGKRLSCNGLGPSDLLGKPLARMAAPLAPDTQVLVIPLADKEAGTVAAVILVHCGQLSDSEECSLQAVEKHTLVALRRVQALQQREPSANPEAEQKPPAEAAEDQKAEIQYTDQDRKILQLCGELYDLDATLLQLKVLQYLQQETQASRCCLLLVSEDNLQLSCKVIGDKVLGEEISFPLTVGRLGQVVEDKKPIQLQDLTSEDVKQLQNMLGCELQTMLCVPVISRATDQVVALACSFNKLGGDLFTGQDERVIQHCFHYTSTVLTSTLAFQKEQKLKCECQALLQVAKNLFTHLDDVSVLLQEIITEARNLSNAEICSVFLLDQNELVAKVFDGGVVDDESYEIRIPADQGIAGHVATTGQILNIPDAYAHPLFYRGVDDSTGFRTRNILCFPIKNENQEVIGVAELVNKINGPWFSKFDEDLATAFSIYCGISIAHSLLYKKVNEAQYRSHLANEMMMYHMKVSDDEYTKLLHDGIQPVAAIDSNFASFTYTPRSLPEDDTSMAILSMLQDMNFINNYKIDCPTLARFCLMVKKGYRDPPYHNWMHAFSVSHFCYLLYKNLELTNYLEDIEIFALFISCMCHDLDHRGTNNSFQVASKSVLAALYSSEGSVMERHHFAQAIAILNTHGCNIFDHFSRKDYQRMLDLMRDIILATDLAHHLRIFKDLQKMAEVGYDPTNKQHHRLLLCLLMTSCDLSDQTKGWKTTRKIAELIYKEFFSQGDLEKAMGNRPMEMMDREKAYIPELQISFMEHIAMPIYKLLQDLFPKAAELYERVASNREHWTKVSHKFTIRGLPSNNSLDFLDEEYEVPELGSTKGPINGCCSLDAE
Procedure: as §1, §2, §3, §4

[1] = mean ± S.E.M. (n), read-out: IC50 on phosphodiesterase isozyme 2

Compound: O=c1cc(-c2ccc(O)cc2)oc2cc(O)cc(O)c12 [Apigenin]
- IC50 (PDE3): 10.5 ± 3.5 µM
- IC50 (PDE2; [1]): 16.7 ± 6.3 µM

Compound: COc1ccc(-c2coc3cc(O)cc(O)c3c2=O)cc1 [Biochanin A]
- IC50 (PDE3): > 100 µM
- IC50 (PDE2; [1]): 27.9 ± 4.1 µM

Compound: O=c1cc(-c2ccccc2)oc2cc(O)cc(O)c12 [Chrysin]
- IC50 (PDE3): > 100 µM
- IC50 (PDE2; [1]): > 100 µM

Compound: O=c1c(-c2ccc(O)cc2)coc2cc(O)ccc12 [Daidzein]
- IC50 (PDE3): 28.6 ± 8.5 µM
- IC50 (PDE2; [1]): > 100 µM

Compound: O=C1CC(c2ccc(O)c(O)c2)Oc2cc(O)cc(O)c21 (stereo not drawn) [Eriodictyol]
- IC50 (PDE3): 52.5 ± 17.7 µM
- IC50 (PDE2; [1]): > 100 µM

Compound: O=c1c(-c2ccc(O)cc2)coc2cc(O)cc(O)c12 [Genistein]
- IC50 (PDE3): 12.9 ± 5.2 µM
- IC50 (PDE2; [1]): 1.7 ± 0.2 µM

Compound: COc1ccc(C2CC(=O)c3c(O)cc(O)cc3O2)cc1O (stereo not drawn) [Hesperetin]
- IC50 (PDE3): > 100 µM
- IC50 (PDE2; [1]): > 100 µM

Compound: O=c1cc(-c2ccc(O)c(O)c2)oc2cc(O[C@@H]3O[C@H](CO)[C@@H](O)[C@H](O)[C@H]3O)cc(O)c12 [Luteolin-7-glucoside]
- IC50 (PDE3): > 100 µM
- IC50 (PDE2; [1]): 35.1 ± 0.2 µM

Compound: O=c1cc(-c2ccc(O)c(O)c2)oc2cc(O)cc(O)c12 [Luteolin]
- IC50 (PDE3): 10.1 ± 1.8 µM
- IC50 (PDE2; [1]): 13.3 ± 0.8 µM

Compound: O=c1c(O)c(-c2cc(O)c(O)c(O)c2)oc2cc(O)cc(O)c12 [Myricetin]
- IC50 (PDE3): 12.4 ± 3.3 µM
- IC50 (PDE2; [1]): 12.8 ± 0.6 µM

Compound: COc1cc(O)c2c(=O)c(-c3ccc(O)cc3)coc2c1 [Prunetin]
- IC50 (PDE3): > 100 µM
- IC50 (PDE2): > 100 µM

Compound: O=c1c(O)c(-c2ccc(O)c(O)c2)oc2cc(O)cc(O)c12 [Quercetin]
- IC50 (PDE3): 5.6 ± 1 µM
- IC50 (PDE2; [1]): 17.9 ± 3.4 µM

Reference: patent US20060229358A1, “Pharmaceutical composition containing flavonoids” (Taipei Medical University, priority 2005, published 2006)
